Measurements as given in the NIST ThermoML archive (doi:10.1021/je050386z).
Numbers after ± are expanded uncertainties.

Settings: 101.33 kPa, Liquid
[1] = 283.15 K, Vibrating tube method
[2] = 298.15 K, Vibrating tube method
[3] = 323.15 K, Vibrating tube method
[4] = 348.15 K, Vibrating tube method

Compound | mass density [1] [kg/m3] | mass density [2] [kg/m3] | mass density [3] [kg/m3] | mass density [4] [kg/m3] | other results
CCCC[n+]1ccn(C)c1.O=S(=O)([O-])C(F)(F)C(F)C(F)(F)F (centres undefined) | 1422 ± 4 | 1409 ± 4 | 1385 ± 4 | 1364 ± 4 | –
CCCCn1cc[n+](C)c1.O=S(=O)([O-])C(F)(F)C(F)(F)OC(F)C(F)(F)F (centres undefined) | 1464 ± 4 | 1449 ± 4 | 1425 ± 4 | 1401 ± 4 | –
CCCCCCCn1cc[n+](C)c1.O=S(=O)([O-])C(F)(F)C(F)F | – | – | – | – | mass density (301.15 K, Pycnometric method): 1274 ± 4 kg/m3
CCCC[n+]1cccc(C)c1.O=S(=O)([N-]S(=O)(=O)C(F)(F)F)C(F)(F)F | 1428 ± 3 | 1412 ± 3 | 1389 ± 3 | 1367 ± 3 | –
CCn1cc[n+](C)c1.O=S(=O)([N-]S(=O)(=O)C(F)(F)F)C(F)(F)F | 1534 ± 5 | 1517 ± 5 | 1492 ± 4 | 1467 ± 4 | –
CC(=O)[O-].CCCCn1cc[n+](C)c1 [1-butyl-3-methylimidazolium acetate] | – | – | – | – | mass density (298.15 K, Pycnometric method): 1053 ± 3 kg/m3
CCCCn1cc[n+](C)c1.O=S(=O)([O-])C(F)(F)C(F)OC(F)(F)C(F)(F)F (centres undefined) | 1439 ± 4 | 1423 ± 4 | 1397 ± 4 | 1372 ± 4 | –
CCCCn1cc[n+](C)c1.N#C[S-] [1-butyl-3-methylimidazolium thiocyanate] | – | – | – | – | mass density (298.65 K, Pycnometric method): 1067 ± 3 kg/m3
CCCCCCCCCCCCn1cc[n+](C)c1.O=S(=O)([O-])C(F)(F)C(F)F | – | – | – | – | mass density (301.35 K, Pycnometric method): 1136 ± 4 kg/m3
CCC[n+]1ccn(C)c1C.O=S(=O)([N-]S(=O)(=O)C(F)(F)F)C(F)(F)F | – | – | – | – | mass density (299.15 K, Pycnometric method): 1481 ± 3 kg/m3
CCn1cc[n+](C)c1.O=S(=O)([O-])C(F)(F)C(F)F | – | – | – | – | mass density (301.45 K, Pycnometric method): 1502 ± 5 kg/m3
CCCCn1cc[n+](C)c1.O=S(=O)([O-])C(F)(F)C(F)F | – | – | – | – | mass density (301.45 K, Pycnometric method): 1324 ± 4 kg/m3
CCCCn1cc[n+](C)c1.O=S(=O)([O-])C(F)(F)C(F)OC(F)(F)F (centres undefined) | 1409 ± 4 | 1393 ± 4 | 1369 ± 4 | 1345 ± 4 | –
CCn1cc[n+](C)c1.O=S(=O)([N-]S(=O)(=O)C(F)(F)C(F)(F)F)C(F)(F)C(F)(F)F | 1608 ± 3 | 1590 ± 3 | 1562 ± 3 | 1534 ± 3 | –
CCCCn1cc[n+](C)c1.COS(=O)(=O)[O-] [1-butyl-3-methylimidazolium methyl sulfate] | – | – | – | – | mass density (298.15 K, Pycnometric method): 1214 ± 3 kg/m3
CCC[n+]1cccc(C)c1.O=S(=O)([N-]S(=O)(=O)C(F)(F)F)C(F)(F)F | 1460 ± 3 | 1444 ± 3 | 1420 ± 3 | 1397 ± 3 | –
CCCn1cc[n+](C)c1C.O=S(=O)([C-](S(=O)(=O)C(F)(F)F)S(=O)(=O)C(F)(F)F)C(F)(F)F | 1612 ± 3 | 1597 ± 3 | 1582 ± 3 | 1567 ± 3 | –
